Experimental data from ChEMBL document CHEMBL4020848, “Antibacterial Activity Affected by the Conformational Flexibility in Glycine-Lysine Based α-Helical Antimicrobial Peptides” (J Med Chem, 2018).
The source made the active and inactive calls. No cut-off for these calls is given here.

Key:
Klebsiella pneumoniae [1] = assay: Antibacterial activity against clinical isolates of Klebsiella pneumoniae after 18 hrs by microdilution method; type: functional
Staphylococcus aureus [2] = assay: Growth inhibition of Staphylococcus aureus ATCC 25923 measured every 10 mins for 4 hrs; type: functional
Acinetobacter baumannii [3] = assay: Antibacterial activity against Acinetobacter baumannii ATCC 19606 after 18 hrs by microdilution method; type: functional; conditions: ATCC 19606 = CIP 70.34 = JCM 6841, 18 h
Acinetobacter baumannii [4] = assay: Bactericidal activity against Acinetobacter baumannii ATCC 19606 after 18 hrs by microdilution method; type: functional; conditions: ATCC 19606 = CIP 70.34 = JCM 6841, 18 h, read-out: MBC=>99.9
[5] = Selectivity index, ratio of HC50 for human RBC to MIC for Pseudomonas aeruginosa
Staphylococcus aureus [6] = assay: Antibacterial activity against Staphylococcus aureus ATCC 25923 after 18 hrs by microdilution method; type: functional; conditions: ATCC 25923, 18 h
Acinetobacter baumannii [7] = assay: Bactericidal activity against clinical isolates of Acinetobacter baumannii after 18 hrs by microdilution method; type: functional; conditions: read-out: MBC=>99.9
Escherichia coli [8] = assay: Bactericidal activity against Escherichia coli ATCC 25922 after 18 hrs by microdilution method; type: functional; conditions: ATCC 25922, 18 h, read-out: MBC=>99.9
[9] = Selectivity index, ratio of HC50 for human RBC to MIC for Klebsiella pneumoniae
[10] = Selectivity index, ratio of HC50 for human RBC to MIC for Staphylococcus aureus ATCC 25923
[11] = Selectivity index, ratio of HC50 for human RBC to MIC for Klebsiella pneumoniae ATCC 13883
Escherichia coli [12] = assay: Induction of membrane permeabilization in Escherichia coli ATCC 25922 assessed as propidium iodide uptake preincubated up to 60 mins followed by propidium iodide addition by flow cytometry; type: functional
Escherichia coli [13] = assay: Growth inhibition of Escherichia coli ATCC 25922 measured every 10 mins for 4 hrs; type: functional
Klebsiella pneumoniae [14] = assay: Antibacterial activity against Klebsiella pneumoniae ATCC 13883 after 18 hrs by microdilution method; type: functional; conditions: ATCC 13883, 18 h
Escherichia coli [15] = assay: Induction of membrane permeabilization in Escherichia coli ATCC 25922 assessed as massive cell disruption/collapse at MBC after 1 hr by atomic force microscopic method; type: functional
Escherichia coli [16] = assay: Induction of membrane permeabilization in Escherichia coli ATCC 25922 assessed as bleb formation at MIC after 1 hr by atomic force microscopic method; type: functional
[17] = Selectivity index, ratio of HC50 for human RBC to MIC for Acinetobacter baumannii ATCC 19606
Escherichia coli [18] = assay: Induction of membrane permeabilization in Escherichia coli ATCC 25922 assessed as loss of pili/flagella at MBC after 1 hr by atomic force microscopic method; type: functional
Staphylococcus aureus [19] = assay: Antibacterial activity against clinical isolates of Staphylococcus aureus after 18 hrs by microdilution method; type: functional
Escherichia coli [20] = assay: Bactericidal activity against clinical isolates of Escherichia coli after 18 hrs by microdilution method; type: functional; conditions: read-out: MBC=>99.9
Klebsiella pneumoniae [21] = assay: Bactericidal activity against clinical isolates of Klebsiella pneumoniae after 18 hrs by microdilution method; type: functional; conditions: read-out: MBC=>99.9
Pseudomonas aeruginosa [22] = assay: Bactericidal activity against Pseudomonas aeruginosa ATCC 27853 after 18 hrs by microdilution method; type: functional; conditions: ATCC 27853, 18 h, read-out: MBC=>99.9
Pseudomonas aeruginosa [23] = assay: Antibacterial activity against clinical isolates of Pseudomonas aeruginosa after 18 hrs by microdilution method; type: functional
Escherichia coli [24] = assay: Induction of membrane permeabilization in Escherichia coli ATCC 25922 assessed as surface indentations at MIC after 1 hr by atomic force microscopic method; type: functional
Pseudomonas aeruginosa [25] = assay: Bactericidal activity against clinical isolates of Pseudomonas aeruginosa after 18 hrs by microdilution method; type: functional; conditions: read-out: MBC=>99.9
[26] = Selectivity index, ratio of HC50 for human RBC to MIC for Pseudomonas aeruginosa ATCC 27853
[27] = Selectivity index, ratio of HC50 for human RBC to MIC for Escherichia coli
Escherichia coli [28] = assay: Antibacterial activity against Escherichia coli ATCC 25922 after 18 hrs by microdilution method; type: functional; conditions: ATCC 25922, 18 h
Escherichia coli [29] = assay: Induction of membrane permeabilization in Escherichia coli ATCC 25922 assessed as formation of pores/cavities at MIC after 1 hr by atomic force microscopic method; type: functional
Escherichia coli [30] = assay: Induction of membrane permeabilization in Escherichia coli ATCC 25922 assessed as propidium iodide uptake at MIC preincubated for 15 mins followed by propidium iodide addition by flow cytometry relative to control; type: functional
Staphylococcus aureus [31] = assay: Bactericidal activity against clinical isolates of Staphylococcus aureus after 18 hrs by microdilution method; type: functional; conditions: read-out: MBC=>99.9
Acinetobacter baumannii [32] = assay: Antibacterial activity against clinical isolates of Acinetobacter baumannii after 18 hrs by microdilution method; type: functional
[33] = Selectivity index, ratio of HC50 for human RBC to MIC for Acinetobacter baumannii
[34] = Selectivity index, ratio of HC50 for human RBC to MIC for Staphylococcus aureus
Klebsiella pneumoniae [35] = assay: Bactericidal activity against Klebsiella pneumoniae ATCC 13883 after 18 hrs by microdilution method; type: functional; conditions: ATCC 13883, 18 h, read-out: MBC=>99.9
[36] = Selectivity index, ratio of HC50 for human RBC to MIC for Escherichia coli ATCC 25922
Pseudomonas aeruginosa [37] = assay: Antibacterial activity against Pseudomonas aeruginosa ATCC 27853 after 18 hrs by microdilution method; type: functional; conditions: ATCC 27853, 18 h
Staphylococcus aureus [38] = assay: Bactericidal activity against Staphylococcus aureus ATCC 25923 after 18 hrs by microdilution method; type: functional; conditions: ATCC 25923, 18 h, read-out: MBC=>99.9
Escherichia coli [39] = assay: Antibacterial activity against clinical isolates of Escherichia coli after 18 hrs by microdilution method; type: functional
Escherichia coli [40] = assay: Induction of membrane permeabilization in Escherichia coli ATCC 25922 assessed as loss of pili/flagella up to 128 uM after 1 hr by atomic force microscopic method; type: functional
Escherichia coli [41] = assay: Induction of membrane permeabilization in Escherichia coli ATCC 25922 assessed as propidium iodide uptake at 0.25 to 1 times MIC preincubated up to 60 mins followed by propidium iodide addition by flow cytometry relative to control; type: functional

MIC (Klebsiella pneumoniae [1]) [µM] | MIC (Acinetobacter baumannii [3]) [µM] | MIC (Staphylococcus aureus [6]) [µM] | IC50 (Escherichia coli [12]) [nM] | MIC (Klebsiella pneumoniae [14]) [µM] | MIC (Staphylococcus aureus [19]) [µM] | MIC (Pseudomonas aeruginosa [23]) [µM] | Substance | IC50 (Staphylococcus aureus [2]) [nM] | MBC (Acinetobacter baumannii [4]) [µM] | MBC (Acinetobacter baumannii [7]) [µM] | MBC (Escherichia coli [8]) [µM] | IC50 (Escherichia coli [13]) [nM] | Activity (Escherichia coli [15]) | Activity (Escherichia coli [16]) | Activity (Escherichia coli [18]) | MBC (Escherichia coli [20]) [µM] | MBC (Klebsiella pneumoniae [21]) [µM] | MBC (Pseudomonas aeruginosa [22]) [µM] | Activity (Escherichia coli [24]) | MBC (Pseudomonas aeruginosa [25]) [µM] | other results
16 to 32 | 2 | 4 | 200 | 2 to 4 | 2 to 4 | 32 | H-KIALKALKALKALGKALKAL-NH2 | 400 | 2 | 32 | 2 to 4 | 350 | Active | Active | Active | 32 | 32 to 64 | 16 | Active | 32 | Selectivity Index [5]: < 1; Selectivity Index [9]: < 1; Selectivity Index [10]: 2.5; Selectivity Index [11]: 2 to 6; Selectivity Index [17]: 5; Selectivity Index [26]: < 1; Selectivity Index [27]: < 1; MIC (Escherichia coli [28]): 1 to 2 µM; Activity (Escherichia coli [29]): Active; Activity (Escherichia coli [30]): >80%; MBC (Staphylococcus aureus [31]): 4 to 8 µM; MIC (Acinetobacter baumannii [32]): 16 to 32 µM; Selectivity Index [33]: < 1; Selectivity Index [34]: 2 to 6; MBC (Klebsiella pneumoniae [35]): 4 µM; Selectivity Index [36]: 5 to 10; MIC (Pseudomonas aeruginosa [37]): 8 to 16 µM; MBC (Staphylococcus aureus [38]): 4 µM; MIC (Escherichia coli [39]): 32 µM
> 64 | > 64 | > 64 | > 128000 | > 64 | > 64 | > 64 | H-KIAGKAGKIAKIAGKAGKIA-NH2 | > 128000 | > 64 | > 64 | > 64 | > 128000 | Active | Active | Active | > 64 | > 64 | > 64 | Active | > 64 | Activity (Escherichia coli [40]): inactive; MIC (Escherichia coli [28]): > 64 µM; Activity (Escherichia coli [29]): Active; MBC (Staphylococcus aureus [31]): > 64 µM; MIC (Acinetobacter baumannii [32]): > 64 µM; Activity (Escherichia coli [41]): <5%; MBC (Klebsiella pneumoniae [35]): > 64 µM; MIC (Pseudomonas aeruginosa [37]): > 64 µM; MBC (Staphylococcus aureus [38]): > 64 µM; MIC (Escherichia coli [39]): > 64 µM
16 | 2 | 16 | 1400 | 16 | 16 | 16 to 32 | H-KIGKALGKALKALGKALGKA-NH2 | 2300 | 2 | 64 | 16 | 700 | Active | Active | Active | 64 | 32 | 16 | Active | 32 | Selectivity Index [5]: < 1; Selectivity Index [9]: < 1; Selectivity Index [10]: < 1; Selectivity Index [11]: < 1; Selectivity Index [17]: 5; Selectivity Index [26]: 2; Selectivity Index [27]: < 1; MIC (Escherichia coli [28]): 8 µM; Activity (Escherichia coli [29]): Active; Activity (Escherichia coli [30]): >80%; MBC (Staphylococcus aureus [31]): 16 to 32 µM; MIC (Acinetobacter baumannii [32]): 32 to 64 µM; Selectivity Index [33]: < 1; Selectivity Index [34]: < 1; MBC (Klebsiella pneumoniae [35]): 32 µM; Selectivity Index [36]: 2; MIC (Pseudomonas aeruginosa [37]): 8 µM; MBC (Staphylococcus aureus [38]): 32 µM; MIC (Escherichia coli [39]): 32 to 64 µM
